Test results reported in US20240148821A1, “PHARMACEUTICAL USE OF CYCLIC PEPTIDE COMPOUND” (CHUGAI SEIYAKU KABUSHIKI KAISHA, priority 2021, published 2024).
Numbered stars: 1 amine (or outer) side, 2 acyl side, 3 side chain; on linkers, the order of the positions; unused ones are H or OH. Bridge positions count the residues as written; N and C are the ends. Square brackets hold non-standard residues; d marks the D form. Peptide text beside a SMILES is read from it. * marks the point of attachment. hPhe(3-Cl-4-CF3) = N[C@@H](CCc1ccc(C(F)(F)F)c(Cl)c1)C(=O)O; hPhe(3-F,4-CF3) = N[C@@H](CCc1ccc(C(F)(F)F)c(F)c1)C(=O)O; X27 = CN([C@@H](Cc1ccc(C(F)(F)F)nc1)C(=O)[*:2])[*:1]; NMePhe(4-Me) = CN[C@@H](Cc1ccc(C)cc1)C(=O)O; NMedβ3hAla = C[C@H](CC(=O)[*:2])N(C)[*:1]; Phe(3-I) = N[C@@H](Cc1cccc(I)c1)C(=O)O; X26 = CC(C)=CC[C@H](N[*:1])C(=O)[*:2]; NMeCha = CN[C@@H](CC1CCCCC1)C(=O)O; cisHyp = O=C(O)[C@@H]1C[C@H](O)CN1; NMeChg = CN[C@H](C(=O)O)C1CCCCC1; NMeI = CC[C@H](C)[C@H](NC)C(=O)O; NMeD = CN[C@@H](CC(=O)O)C(=O)O; NMeL = CN[C@@H](CC(C)C)C(=O)O; NMeV = CN[C@H](C(=O)O)C(C)C; d(β3hA) = C[C@@H](N)CC(=O)O; NMeS = CN[C@@H](CO)C(=O)O; NMeA = CN[C@@H](C)C(=O)O; NMeAib = CNC(C)(C)C(=O)O; Nle = CCCC[C@H](N)C(=O)O; Piperidide = C1CCN(*)CC1; Pyrrolidide = C1CCN(*)C1; Ac5c = NC1(C(=O)O)CCCC1; Aze = O=C(O)[C@@H]1CCN1; Sar = CNCC(=O)O; Propyl = CCC*

Legend:
[1] = molecular target: protein-protein interaction between Kras and SOS1 (biotin-tagged human Kras loaded with GDP, His-tagged human SOS1) (Homo sapiens (Human), UniProt P01116, G12D); experiment: Protein-protein interaction inhibition between Kras and SOS1 (KrasG12D-SOS PPI) using AlphaScreen; assay type: biochemical; settings: AlphaScreen; biotin-tagged human Kras loaded with GDP, His-tagged human SOS1; read-out: KRAS G12D-SOS PPI IC50;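 further: kras produced in E. coli, Ni-coupled donor beads and streptavidin acceptor beads, excitation 680 nm with emission detected at 520–620 nm via singlet oxygen transfer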
[2] = system: Human pancreatic cancer cell line AsPC-1 (G12D mutation Kras); experiment: AsPC-1 cell growth inhibition (AsPC-1 CGI); assay type: cell-based; settings: read-out: AsPC-1 cell growth inhibition, 50% growth inhibitory concentration (IC50 value); 96 hours, CellTiter-Glo, values classified in ranges
Experimental: Test compounds were serially dilated with dimethyl sulfoxide, and 200 nL was then dispensed to a U-bottom 96-well plate using Labcyte Echo. […] The cell suspension was dispensed to a. plate containing a test compound at 100 μL per well and incubated at 37° C. in a 5% carbon dioxide gas incubator. 96 hours later, 80 μL of CellTiter-Glo (Promega) was added to each well and fluorescence was measured.

Row | Structure (SMILES) | IC50 [1] [nM] | IC50 [2] [nM]
1 | CC(C)=CC[C@@H]1NC(=O)[C@H](CC(C)C)N(C)C(=O)C[C@@H](C(=O)N2CCCCC2)N(C)C(=O)[C@H](C(C)C)N(C)C(=O)C2(CCCC2)NC(=O)[C@@H]2CCCN2C(=O)[C@H](CCc2ccc(C(F)(F)F)c(Cl)c2)NC(=O)CN(C)C(=O)[C@H](CC2CCCCC2)N(C)C(=O)[C@@H]2CCN2C(=O)[C@H](C)N(C)C1=O [Compound 729] ([NMeL][X26][NMeA][Aze][NMeCha][Sar][hPhe(3-Cl-4-CF3)]P[Ac5c][NMeV][NMeD]-Piperidide; lactam N-11) | 43 | > 500
2 | CC[C@H](C)[C@@H]1NC(=O)[C@H](CC(C)C)N(C)C(=O)C[C@@H](C)N(C)C(=O)[C@H](CC(C)C)NC(=O)C(C)(C)N(C)C(=O)[C@H](CC(C)C)NC(=O)[C@H](CCc2ccc(C(F)(F)F)c(Cl)c2)NC(=O)CN(C)C(=O)[C@H](CC2CCCCC2)N(C)C(=O)CN(C)C(=O)CN(C)C1=O [Compound 1076] (cyclo(I[Sar][Sar][NMeCha][Sar][hPhe(3-Cl-4-CF3)]L[NMeAib]L[NMedβ3hAla][NMeL])) | 19 | > 500
3 | CC[C@H](C)[C@@H]1NC(=O)[C@H](CC(C)C)N(C)C(=O)C[C@@H](C(=O)N2CCCC2)N(C)C(=O)[C@H]([C@@H](C)CC)N(C)C(=O)C2(CCCC2)NC(=O)[C@@H]2CCCN2C(=O)[C@H](CCc2ccc(C(F)(F)F)c(Cl)c2)NC(=O)CN(C)C(=O)[C@H](Cc2ccc(C)cc2)N(C)C(=O)[C@@H]2CCN2C(=O)[C@H](C)N(C)C1=O [Compound 1645] ([NMeL]I[NMeA][Aze][NMePhe(4-Me)][Sar][hPhe(3-Cl-4-CF3)]P[Ac5c][NMeI][NMeD]-Pyrrolidide; lactam N-11) | 1 | ≤ 20
4 | CC[C@H](C)[C@@H]1NC(=O)[C@H](CC(C)C)N(C)C(=O)C[C@@H](C)NC(=O)[C@H](CC(C)C)N(C)C(=O)C2(CCCC2)NC(=O)[C@@H]2C[C@H](O)CN2C(=O)[C@H](CCc2ccc(C(F)(F)F)c(F)c2)NC(=O)CN(C)C(=O)[C@H](CC2CCCCC2)N(C)C(=O)CN(C)C(=O)CN(C)C1=O [Compound 1529] (cyclo([Ac5c][NMeL][d(β3hA)][NMeL]I[Sar][Sar][NMeCha][Sar][hPhe(3-F,4-CF3)][cisHyp])) | 11 | > 500
5 | CC[C@H](C)[C@@H]1NC(=O)[C@H](CC(C)C)N(C)C(=O)C[C@@H](C(=O)N2CCCCC2)N(C)C(=O)[C@H](C2CCCCC2)N(C)C(=O)C2(CCCC2)NC(=O)[C@H](Cc2ccc(C(F)(F)F)nc2)N(C)C(=O)[C@H](CCc2ccc(C(F)(F)F)c(Cl)c2)NC(=O)CN(C)C(=O)[C@H](CC2CCCCC2)N(C)C(=O)CN(C)C(=O)CN(C)C1=O [Compound 10] ([NMeL]I[Sar][Sar][NMeCha][Sar][hPhe(3-Cl-4-CF3)][X27][Ac5c][NMeChg][NMeD]-Piperidide; lactam N-11) | 18 | > 500
6 | CC(C)C[C@H]1C(=O)N[C@@H](C)C(=O)N(C)[C@@H](C)C(=O)N2CC[C@H]2C(=O)N(C)[C@@H](CC2CCCCC2)C(=O)N(C)CC(=O)N[C@@H](CCc2ccc(C(F)(F)F)c(Cl)c2)C(=O)N2CCC[C@H]2C(=O)NC2(CCCC2)C(=O)N(C)[C@@H](C(C)C)C(=O)N(C)[C@H](C(=O)N2CCCCC2)CC(=O)N1C [Compound 1780] ([NMeL]A[NMeA][Aze][NMeCha][Sar][hPhe(3-Cl-4-CF3)]P[Ac5c][NMeV][NMeD]-Piperidide; lactam N-11) | 120 | > 500
7 | CCCOC[C@H]1C(=O)N(C)CC(=O)N[C@@H](CCc2ccc(C(F)(F)F)c(Cl)c2)C(=O)N2CCC[C@H]2C(=O)NC2(CCCC2)C(=O)N(C)[C@@H]([C@@H](C)CC)C(=O)N(C)[C@H](C(=O)N2CCCC2)CC(=O)N(C)[C@@H](CC(C)C)C(=O)N[C@@H]([C@@H](C)CC)C(=O)N(C)[C@@H](C)C(=O)N2CC[C@H]2C(=O)N1C [Compound 567] ([NMeL]I[NMeA][Aze][NMeS](Propyl)[Sar][hPhe(3-Cl-4-CF3)]P[Ac5c][NMeI][NMeD]-Pyrrolidide; lactam N-11) | 1.5 | ≤ 20
8 | CCCC[C@@H]1NC(=O)[C@H](Cc2cccc(I)c2)NC(=O)CN(C)C(=O)[C@H](Cc2ccc(C)cc2)N(C)C(=O)[C@@H]2CCN2C(=O)[C@H](C)N(C)C(=O)[C@H]([C@@H](C)CC)NC(=O)[C@H](CC(C)C)N(C)C(=O)C[C@@H](C(=O)N2CCCCC2)N(C)C(=O)[C@H](CC(C)C)NC(=O)[C@H]2CCCN2C1=O [Compound 822] ([NMeL]I[NMeA][Aze][NMePhe(4-Me)][Sar][Phe(3-I)][Nle][dP]L[NMeD]-Piperidide; lactam N-11) | 150 | > 500
